Experimental data taken from patent publication US20070010671A1, “Novel quinazoline derivatives and methods of treatment related to the use thereof” (priority 2003, published 2007).

Biological target: MCH receptor (Homo sapiens, UniProt Q99705)
Assay: High throughput functional screening FLIPR/FDSS6000: inhibition of MCH-evoked intracellular Ca2+ changes
Assay type: cell-based
Details: class by percent of control at 10^-7 M or IC50
Description: Subsequently, a functional based assay was used to confirm the lead hits, referred to as FLIPR™ (the Fluorometric Imaging Plate Reader) and FDSS6000™ (Functional Drug Screening System). This assay utilized 3 non-endozenous, constitutively active version of the MCH receptor.
The FLIPR and FDSS assays are able to detect intracellular Ca^2+ concentration in cells, which can be utilized to assess receptor activation and determine whether a candidate compound is an, for example, antagonist, inverse agonist or agonist to a Gq-coupled receptor. The concentration of free Ca^2+ in the cytosol of any cell is extremely low, whereas its concentration in the extracellular fluid and endoplasmic reticulum (ER) is very high. Thus, there is a large gradient tending to drive Ca^2+ into the cytosol across both the plasma membrane and ER. The FLIPR™ and FDSS6000™ systems (Molecular Devices Corporation, HAMAMATSU Photonics K.K.) are designed to perform functional cell-based assays, such as the measurement of intracellular calcium for high-throughput screening, The measurement of fluorescent is associated with calcium release upon activation of the Gq-coupled receptors.
Fluorometric Imaging Plate Reader system was used to allow for rapid, kinetic measurements of intracellular fluorescence in 96 well microplates (or 384 well microplates). Simultaneous measurements of fluorescence in all wells can be made by FLIPR or FDSS6000™ every second with high sensitivity and precision. These systems are ideal for measuring cell-based functional assays such as monitoring the intracellular calcium fluxes that occur within seconds after activation of the Gq coupled receptor.
Briefly, the cells are seeded into 96 well at 5.5×10^4 cells/well with complete culture media (Dulbecco's Modified Eagle Medium with 10% fetal bovine serum, 2 mMi L-glutamine, 1 mM sodium pyruvate and 0.5 mg/ml G418, pH 7.4) for the assay next day. On the day of assay, the media is removed and the cells are incubated with 100 μl of loading buffer (4 μM Fluo4-AM in complete culture media containing 2.5 mM Probenicid, 0.5 mg/ml and 0.2% bovine serum albumin) in 5% CO2 incubator at 37° C. for 1 hr. The loading buffer is removed, and the cells are washed with wash buffer (Hank's Balanced Salt Solution containing 2.5 mM Probenicid, 20 mM HEPES, 0.5 mg/ml and 0.2% bovine serum albumm, pH 7.4)). One hundred fifty μl of wash buffer containing various concentrations of test compound is added to the cells, and the cells are incubated in 5% CO2 incubator at 37° C. for 3 min. Fifty μl of wash buffer containing various concentration of MCH are added to each well, and transient changes in [Ca^2+]i evokled bee MCH are monoitored using the FLIPR, or FDSS in 96 shell plates at Ex. 488 nm and Em. 530 nm for 290 second. When antagonist activity of compound is tested, 50 nM of MCH is used.
Use of FLIPR™ and FDSS6000™ can be accomplished by following manufacturer's instruction (Molecular Device Corporation and HAMAMATSU Photonics K.K.).

| Compound | class |
| --- | --- |
| Cc1cc(Cl)cc(Cl)c1NC(=S)NC[C@H]1CC[C@@H](Nc2nc(N(C)C)c3ccccc3n2)CC1 [compound 782, N-(2,4-dichloro-6-methylphenyl)-N′-[(cis-4-{[4-(dimethylamino)quinazolin-2-yl]amino}cyclohexyl)methyl]thiourea] | 2 (Class 2: The value of percent of control at 10^−7 M was from 40% to 60% or the value of IC50 was from 50 nM to 200 nM.) |
| CN(C)c1nc(N[C@H]2CC[C@@H](CNC(=S)NCC3CCCCC3)CC2)nc2ccccc12 [compound 710, N-(cyclohexylmethyl)-N′-[(cis-4-{[4-(dimethylamino)quinazolin-2-yl]amino}cyclohexyl)methyl]thiourea] | 2 (Class 2: The value of percent of control at 10^−7 M was from 40% to 60% or the value of IC50 was from 50 nM to 200 nM.) |
| CN(C)c1nc(N[C@H]2CC[C@@H](CNC(=S)NC(C)(C)CC(C)(C)C)CC2)nc2ccccc12 [compound 614] | 3 (Class 3: The value of percent of control at 10^−7 M was more than 60% or the value of IC50 was more than 200 nM.) |
| COc1ccc(Cl)cc1NC(=O)NC[C@H]1CC[C@@H](Nc2nc(N(C)C)c3ccccc3n2)CC1 [compound 564] | 3 (Class 3: The value of percent of control at 10^−7 M was more than 60% or the value of IC50 was more than 200 nM.) |
| Cc1ccc(NC(=S)NC[C@H]2CC[C@@H](Nc3nc(N(C)C)c4ccccc4n3)CC2)c([N+](=O)[O-])c1 [compound 703] | 3 (Class 3: The value of percent of control at 10^−7 M was more than 60% or the value of IC50 was more than 200 nM.) |
| CC(C)c1cccc(C(C)C)c1NC(=S)N[C@H]1CC[C@@H](Nc2nc(N(C)C)c3ccccc3n2)CC1 [compound 251] | 2 (Class 2: The value of percent of control at 10^−7 M was from 40% to 60% or the value of IC50 was from 50 nM to 200 nM.) |
| CN(C)c1nc(N[C@H]2CC[C@@H](NC(=S)Nc3ccc(N(C)C)c4ccccc34)CC2)nc2ccccc12 [compound 389, N-[4-(dimethylamino)-1-naphthyl]-N′-(cis-4-{[4-(dimethylamino)quinazolin-2-yl]amino}cyclohexyl)thiourea] | 1 (Class 1: The value of percent of control at 10^−7 M was less than 40% or the value of IC50 was less than 50 nM.) |
| CCc1cccc(C(C)C)c1NC(=S)NC[C@H]1CC[C@@H](Nc2nc(N(C)C)c3ccccc3n2)CC1 [compound 597] | 2 (Class 2: The value of percent of control at 10^−7 M was from 40% to 60% or the value of IC50 was from 50 nM to 200 nM.) |
| CN(C)c1nc(N[C@H]2CC[C@@H](NC(=S)NCCc3ccccc3)CC2)nc2ccccc12 [compound 203] | 3 (Class 3: The value of percent of control at 10^−7 M was more than 60% or the value of IC50 was more than 200 nM.) |

Same assay, conditions: class by percent of control at 10^−7 M or by IC50; read-out: class

| IC50 | Compound |
| --- | --- |
| 50 to 200 nM | CN(C)c1nc(N[C@H]2CC[C@@H](CNC(=O)c3cc(F)ccc3F)C2)nc2ccccc12 [Example 1129, N-[((1R,3S)-3-{[4-(dimethylamino)quinazolin-2-yl]amino}cyclopentyl)methyl]-2,5-difluorobenzamide] |
| 50 to 200 nM | CN(C)c1nc(N[C@H]2CC[C@@H](NC(=O)c3ccnc(Oc4cccc(Cl)c4)c3)CC2)nc2ccccc12 [Example 1073, 2-(3-chlorophenoxy)-N-(cis-4-{[4-(dimethylamino)quinazolin-2-yl]amino}cyclohexyl)isonicotinamide] |
| < 50 nM | CN(C)c1nc(N[C@H]2CC[C@@H](C(=O)NCc3cc(Br)ccc3F)CC2)nc2ccccc12 [Example 1163, cis-N-(5-bromo-2-fluorobenzyl)-4-{[4-(dimethylamino)quinazolin-2-yl]amino}cyclohexanecarboxamide] |
| 50 to 200 nM | CCOc1ccccc1NC(=O)NC[C@H]1CC[C@@H](Nc2nc(N(C)C)c3ccccc3n2)CC1 [Example 1016, N-[(cis-4-{[4-(dimethylamino)quinazolin-2-yl]amino}cyclohexyl)methyl]-N′-(2-ethoxyphenyl)urea] |
| < 50 nM | CN(C)c1nc(N[C@H]2CC[C@@H](NC(=O)c3cccc(NC(=O)C4CCCC4)c3)CC2)nc2ccccc12 [Example 1203, 3-[(cyclopentylcarbonyl)amino]-N-(cis-4-{[4-(dimethylamino)quinazolin-2-yl]amino}cyclohexyl)benzamide] |
